{"source": "ChEMBL document CHEMBL1141755", "about": "“Flavonoids from the stem of Eriophorum scheuchzeri” (J Nat Prod, 2005)", "key": {"[1]": {"system": "Candida albicans", "assay": "Antifungal activity against Candida albicans at 10 ug after 3 days by MTT assay", "format": "functional, organism-based"}, "[2]": {"system": "Radical scavenging activity", "assay": "Antioxidant activity assessed as DPPH radical scavenging activity at 5 ug", "format": "functional"}, "[3]": {"system": "Cladosporium cucumerinum", "assay": "Antifungal activity against Cladosporium cucumerinum at 10 ug after 3 days by MTT assay", "format": "functional, organism-based"}, "[4]": {"system": "Cladosporium cucumerinum", "assay": "Antifungal activity against Cladosporium cucumerinum at 5 ug after 3 days by MTT assay", "format": "functional, organism-based"}, "[5]": {"system": "Candida albicans", "assay": "Antifungal activity against Candida albicans at 5 ug after 3 days by MTT assay", "format": "functional, organism-based"}, "[6]": {"system": "Radical scavenging activity", "assay": "Antioxidant activity assessed as DPPH radical scavenging activity at 10 ug", "format": "functional"}, "[7]": {"system": "Cladosporium cucumerinum", "assay": "Antifungal activity against Cladosporium cucumerinum at 1 ug after 3 days by MTT assay", "format": "functional, organism-based"}, "[8]": {"system": "Radical scavenging activity", "assay": "Antioxidant activity assessed as DPPH radical scavenging activity at 1 ug", "format": "functional"}}, "note": "Active and inactive are the calls of the source. No cut-off for these calls is given here."}
{"smiles": "COc1cc(O)c2c(=O)c(-c3ccc(O)c(C)c3OC)coc2c1", "values": [{"measurement": "Activity", "setting": "[1]", "result": "inactive"}, {"measurement": "Activity", "setting": "[2]", "result": "inactive"}, {"measurement": "Activity", "setting": "[3]", "result": "Active"}, {"measurement": "Activity", "setting": "[4]", "result": "Active"}, {"measurement": "Activity", "setting": "[5]", "result": "inactive"}, {"measurement": "Activity", "setting": "[6]", "result": "inactive"}, {"measurement": "Activity", "setting": "[7]", "result": "Active"}, {"measurement": "Activity", "setting": "[8]", "result": "inactive"}]}
{"smiles": "COc1cc(-c2cc(=O)c3c(O)cc(O)cc3o2)cc(OC)c1O", "values": [{"measurement": "Activity", "setting": "[1]", "result": "inactive"}, {"measurement": "Activity", "setting": "[2]", "result": "Active"}, {"measurement": "Activity", "setting": "[3]", "result": "inactive"}, {"measurement": "Activity", "setting": "[4]", "result": "inactive"}, {"measurement": "Activity", "setting": "[5]", "result": "inactive"}, {"measurement": "Activity", "setting": "[6]", "result": "Active"}, {"measurement": "Activity", "setting": "[7]", "result": "inactive"}, {"measurement": "Activity", "setting": "[8]", "result": "Active"}]}
{"smiles": "C=C(C)C(O)Cc1c(O)cc(O)c2c1OC(c1ccc(O)cc1)CC2=O", "note": "(centres undefined)", "values": [{"measurement": "Activity", "setting": "[1]", "result": "Active"}, {"measurement": "Activity", "setting": "[2]", "result": "Active"}, {"measurement": "Activity", "setting": "[3]", "result": "Active"}, {"measurement": "Activity", "setting": "[4]", "result": "Active"}, {"measurement": "Activity", "setting": "[5]", "result": "Active"}, {"measurement": "Activity", "setting": "[6]", "result": "Active"}, {"measurement": "Activity", "setting": "[7]", "result": "inactive"}, {"measurement": "Activity", "setting": "[8]", "result": "Active"}]}
{"smiles": "CC1(C)C=Cc2c(cc3occ(-c4ccc(O)cc4O)c(=O)c3c2O)O1", "values": [{"measurement": "Activity", "setting": "[1]", "result": "Active"}, {"measurement": "Activity", "setting": "[2]", "result": "Active"}, {"measurement": "Activity", "setting": "[3]", "result": "Active"}, {"measurement": "Activity", "setting": "[4]", "result": "Active"}, {"measurement": "Activity", "setting": "[5]", "result": "Active"}, {"measurement": "Activity", "setting": "[6]", "result": "Active"}, {"measurement": "Activity", "setting": "[7]", "result": "Active"}, {"measurement": "Activity", "setting": "[8]", "result": "Active"}]}
{"smiles": "COc1cc(O)c2c(=O)c(-c3ccc(O)cc3OC)coc2c1", "values": [{"measurement": "Activity", "setting": "[1]", "result": "inactive"}, {"measurement": "Activity", "setting": "[2]", "result": "Active"}, {"measurement": "Activity", "setting": "[3]", "result": "inactive"}, {"measurement": "Activity", "setting": "[4]", "result": "inactive"}, {"measurement": "Activity", "setting": "[5]", "result": "inactive"}, {"measurement": "Activity", "setting": "[6]", "result": "Active"}, {"measurement": "Activity", "setting": "[7]", "result": "inactive"}, {"measurement": "Activity", "setting": "[8]", "result": "inactive"}]}
{"smiles": "COc1cc(O)c2c(=O)c(-c3ccc(O)c(C)c3O)coc2c1", "values": [{"measurement": "Activity", "setting": "[1]", "result": "Active"}, {"measurement": "Activity", "setting": "[2]", "result": "Active"}, {"measurement": "Activity", "setting": "[3]", "result": "Active"}, {"measurement": "Activity", "setting": "[4]", "result": "inactive"}, {"measurement": "Activity", "setting": "[5]", "result": "Active"}, {"measurement": "Activity", "setting": "[6]", "result": "Active"}, {"measurement": "Activity", "setting": "[7]", "result": "inactive"}, {"measurement": "Activity", "setting": "[8]", "result": "Active"}]}
{"smiles": "CC1(C)C=Cc2c(cc(O)c3c(=O)c(-c4ccc(O)cc4O)coc23)O1", "values": [{"measurement": "Activity", "setting": "[1]", "result": "Active"}, {"measurement": "Activity", "setting": "[2]", "result": "Active"}, {"measurement": "Activity", "setting": "[3]", "result": "Active"}, {"measurement": "Activity", "setting": "[4]", "result": "Active"}, {"measurement": "Activity", "setting": "[5]", "result": "Active"}, {"measurement": "Activity", "setting": "[6]", "result": "Active"}, {"measurement": "Activity", "setting": "[7]", "result": "Active"}, {"measurement": "Activity", "setting": "[8]", "result": "Active"}]}
{"smiles": "COc1cc(O)c2c(=O)c(-c3ccc(O)cc3O)coc2c1", "values": [{"measurement": "Activity", "setting": "[1]", "result": "inactive"}, {"measurement": "Activity", "setting": "[2]", "result": "inactive"}, {"measurement": "Activity", "setting": "[3]", "result": "Active"}, {"measurement": "Activity", "setting": "[4]", "result": "Active"}, {"measurement": "Activity", "setting": "[5]", "result": "inactive"}, {"measurement": "Activity", "setting": "[6]", "result": "inactive"}, {"measurement": "Activity", "setting": "[7]", "result": "Active"}, {"measurement": "Activity", "setting": "[8]", "result": "inactive"}]}
